We go through four compounds from patent US20070212723A1, “Human sodium channel isoforms” (priority 2006, published 2007).

Series [1] addresses T1, NF-κB binding to the scn5a promoter (Rattus norvegicus, UniProt Q63369+Q7TQN4).
T1 construct: endogenous in cells; host or cells: H9c2 cardiomyocytes (nuclear extract / cross-linked chromatin)
Description: Electrophoretic mobility shift assay with H9c2 nuclear extracts. It counts as cell-based. From the text: Approximately 5×10^6 cells were scraped for nuclear protein extraction by nuclear extract kit (Activemotif, Carlsbad, Calif.). A double-stranded oligonucleotide containing the consensus-binding sequence (bold) for […] ID NO. 32)) and NF-Kb mutant sequence ([NT] ID NO. 33)) from scn5a promoter were used as probes to assay for binding activity of the nuclear extracts. Protein-DNA complexes were detected using biotin end-labeled double-stranded DNA probes prepared by annealing complementary oligonucleotides. Oligonucleotides were labeled in a reaction using terminal deoxynucleotide transferase and biotin-N4-CTP (Pierce, Rockford, Ill.) following the biotin 3' end DNA labeling kit manual. The binding reaction was performed using the LightShift kit (Pierce). Briefly, 30 μg of nuclear extracts and binding buffer were incubated on ice for 5 min in a volume of 20 μL, then the labeled probe (20 fmol) was added, and the reaction was allowed to incubate for an additional 25 min. Following electrophoresis, the DNA-protein complexes were transferred onto nylon membranes and detected using chemiluminescence. TNF-α activated H9c2 cell nuclear extract (5 μg) was used as positive control. The reaction products were separated on a 6% retardation gel. Specificity was confirmed by addition of unlabelled probe in 200-fold excess.

Series [2] concerns the target T2, NF-κB p50/p65 subunits on the cardiac Na+ channel promoter (Rattus norvegicus, UniProt Q63369+Q7TQN4).
T2 construct: endogenous in cells; host or cells: H9c2 cardiomyocytes (nuclear extract / cross-linked chromatin)
Description: Chromatin immunoprecipitation (ChIP) assay in H9c2 cells. It counts as cell-based. Here is the method: Formaldehyde cross-linking and chromatin immunoprecipitation was performed as described in manufactory's manual (ChIP-IT™ kit, Activemotif). Briefly, proteins were crosslinked with chromatin using 1% formaldehyde in H9c2 cells with or without treatment. The cells were subsequently sonicated in lysis buffer, and an aliquot of the lysate was used in a PCR reaction. The remaining lysate was cleared with protein G beads. One half of the cleared lysate was incubated with p50 or p65 antibody, while the other half was used as a negative control without the antibody. After reversing the cross-linking, the immuno-complex was digested with proteinase K, and the DNA was purified. DNA was analyzed by PCR with the PicoMax Polymerase (Stratagene, La Jolla, Calif.) and primers specific to the APS3 promoter region.

In series [3] the test system is cardiac sodium channel (scn5a) mRNA. Put plainly: Quantitative real-time RT-PCR of scn5a transcripts in acutely isolated neonatal cardiomyocytes. Format: cell-based, rat.
Series [4] has the same test system. Put plainly: Quantitative real-time RT-PCR of scn5a transcripts in H9c2 cells. It counts as cell-based, rat.
The subject of series [5] is cardiac Na+ channel current. Description: Patch-clamp determination of Na+ current in H9c2 cells. Format: cell-based, rat. The conditions noted are these: H9c2, 20 μmol/L H2O2, 48 h, step to -10 mV. Here is the method: Three hours prior to the start of the patch-clamp experiments, H9c2 cells were trypsinized and plated on treated plastic coverslips. H9c2 cells were treated with or without H2O2 as indicated. Glass pipettes were pulled on a Sutter Model P-97 horizontal puller to a resistance of 0.5 to 1.5 MΩ. The glass pipettes were filled with a solution of (in mM) CsCl 60, Cesium Aspartate 80, EGTA sodium 11, HEPES 10, Na2ATP 5 and pH 7.2 with CsOH. The bath solution consisted of (in mM) Na 30, […] chloride 100, CsCl 5, CaCl2 2, MgCl2 1.2, HEPES 10, Glucose 5 and pH 7.4 with NaOH. Once a seal was established, a small amount of suction was applied to obtain the whole cell configuration. From a holding potential of −100 mV, peak currents obtained at −10 mV were used for comparison. Cells were tested at 25° C. Data were sampled at 10 kHz and later filtered at 5 kHz for analysis. Currents were recorded and analyzed with an Axopatch 200B amplifier, Axon Digidata 1230A A/D converter and pClamp software (Molecular Devices Corporation, Sunnyvale, Calif.).

In series [6] the test system is scn5a promoter with mutated NF-κB binding site. Put plainly: Promoter-reporter assay with mutated NF-κB binding site (APS3-NF-κBm) in H9c2 cells. It counts as cell-based, rat. The conditions noted are these: H9c2, 48 h, 100 nM AngII or 20 μM H2O2.
The next series concerns the target Na+ current (Homo sapiens, UniProt Q14524). The conditions noted are these: acute exposure, dependent on PKC activation (Ward et al. 1997); cited from earlier work.
In the next series the test system is scn5a promoter. Description: scn5a promoter-reporter (pGL3-APS3) dual-luciferase assay in H9c2 cells. The conditions noted are these: APS3 construct, H9c2, 20 μM H2O2, 48 h. It counts as cell-based, rat.
In a further series the test system is H9c2 cardiomyocytes. The conditions noted are these: H9c2, serum free medium, 48 h.

T2 sequence (Q63369 1-433 limits assumed): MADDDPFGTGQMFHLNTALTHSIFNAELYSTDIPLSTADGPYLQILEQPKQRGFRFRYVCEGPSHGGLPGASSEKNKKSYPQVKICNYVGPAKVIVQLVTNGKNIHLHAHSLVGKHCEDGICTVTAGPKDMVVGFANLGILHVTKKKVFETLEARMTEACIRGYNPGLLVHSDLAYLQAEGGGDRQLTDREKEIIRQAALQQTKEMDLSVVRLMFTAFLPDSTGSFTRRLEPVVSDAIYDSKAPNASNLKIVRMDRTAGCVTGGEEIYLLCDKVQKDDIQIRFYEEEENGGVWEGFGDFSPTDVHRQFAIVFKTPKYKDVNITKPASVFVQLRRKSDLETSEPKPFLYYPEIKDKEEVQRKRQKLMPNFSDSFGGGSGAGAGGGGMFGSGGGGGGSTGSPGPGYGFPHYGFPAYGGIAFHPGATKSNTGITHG
T2 sequence (Q7TQN4 whole entry): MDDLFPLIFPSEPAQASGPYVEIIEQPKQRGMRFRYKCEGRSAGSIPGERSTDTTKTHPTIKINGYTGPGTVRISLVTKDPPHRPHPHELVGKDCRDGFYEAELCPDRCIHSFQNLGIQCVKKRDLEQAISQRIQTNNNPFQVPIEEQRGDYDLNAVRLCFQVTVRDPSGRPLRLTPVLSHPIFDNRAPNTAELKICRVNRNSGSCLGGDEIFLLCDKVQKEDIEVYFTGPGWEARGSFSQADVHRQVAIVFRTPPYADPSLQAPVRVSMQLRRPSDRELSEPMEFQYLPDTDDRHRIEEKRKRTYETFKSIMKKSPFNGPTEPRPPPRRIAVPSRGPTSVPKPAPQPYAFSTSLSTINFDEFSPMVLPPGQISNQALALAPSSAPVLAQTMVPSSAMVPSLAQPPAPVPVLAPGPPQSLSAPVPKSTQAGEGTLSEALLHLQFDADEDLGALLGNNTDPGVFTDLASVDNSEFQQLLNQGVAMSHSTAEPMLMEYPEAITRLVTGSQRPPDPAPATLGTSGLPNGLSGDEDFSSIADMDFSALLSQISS
T1 sequence (Q63369 1-433 limits assumed): as the sequence (Q63369 1-433 limits assumed) above
T1 sequence (Q7TQN4 whole entry): as the sequence (Q7TQN4 whole entry) above
Chain of Na+ current (Q14524 whole entry): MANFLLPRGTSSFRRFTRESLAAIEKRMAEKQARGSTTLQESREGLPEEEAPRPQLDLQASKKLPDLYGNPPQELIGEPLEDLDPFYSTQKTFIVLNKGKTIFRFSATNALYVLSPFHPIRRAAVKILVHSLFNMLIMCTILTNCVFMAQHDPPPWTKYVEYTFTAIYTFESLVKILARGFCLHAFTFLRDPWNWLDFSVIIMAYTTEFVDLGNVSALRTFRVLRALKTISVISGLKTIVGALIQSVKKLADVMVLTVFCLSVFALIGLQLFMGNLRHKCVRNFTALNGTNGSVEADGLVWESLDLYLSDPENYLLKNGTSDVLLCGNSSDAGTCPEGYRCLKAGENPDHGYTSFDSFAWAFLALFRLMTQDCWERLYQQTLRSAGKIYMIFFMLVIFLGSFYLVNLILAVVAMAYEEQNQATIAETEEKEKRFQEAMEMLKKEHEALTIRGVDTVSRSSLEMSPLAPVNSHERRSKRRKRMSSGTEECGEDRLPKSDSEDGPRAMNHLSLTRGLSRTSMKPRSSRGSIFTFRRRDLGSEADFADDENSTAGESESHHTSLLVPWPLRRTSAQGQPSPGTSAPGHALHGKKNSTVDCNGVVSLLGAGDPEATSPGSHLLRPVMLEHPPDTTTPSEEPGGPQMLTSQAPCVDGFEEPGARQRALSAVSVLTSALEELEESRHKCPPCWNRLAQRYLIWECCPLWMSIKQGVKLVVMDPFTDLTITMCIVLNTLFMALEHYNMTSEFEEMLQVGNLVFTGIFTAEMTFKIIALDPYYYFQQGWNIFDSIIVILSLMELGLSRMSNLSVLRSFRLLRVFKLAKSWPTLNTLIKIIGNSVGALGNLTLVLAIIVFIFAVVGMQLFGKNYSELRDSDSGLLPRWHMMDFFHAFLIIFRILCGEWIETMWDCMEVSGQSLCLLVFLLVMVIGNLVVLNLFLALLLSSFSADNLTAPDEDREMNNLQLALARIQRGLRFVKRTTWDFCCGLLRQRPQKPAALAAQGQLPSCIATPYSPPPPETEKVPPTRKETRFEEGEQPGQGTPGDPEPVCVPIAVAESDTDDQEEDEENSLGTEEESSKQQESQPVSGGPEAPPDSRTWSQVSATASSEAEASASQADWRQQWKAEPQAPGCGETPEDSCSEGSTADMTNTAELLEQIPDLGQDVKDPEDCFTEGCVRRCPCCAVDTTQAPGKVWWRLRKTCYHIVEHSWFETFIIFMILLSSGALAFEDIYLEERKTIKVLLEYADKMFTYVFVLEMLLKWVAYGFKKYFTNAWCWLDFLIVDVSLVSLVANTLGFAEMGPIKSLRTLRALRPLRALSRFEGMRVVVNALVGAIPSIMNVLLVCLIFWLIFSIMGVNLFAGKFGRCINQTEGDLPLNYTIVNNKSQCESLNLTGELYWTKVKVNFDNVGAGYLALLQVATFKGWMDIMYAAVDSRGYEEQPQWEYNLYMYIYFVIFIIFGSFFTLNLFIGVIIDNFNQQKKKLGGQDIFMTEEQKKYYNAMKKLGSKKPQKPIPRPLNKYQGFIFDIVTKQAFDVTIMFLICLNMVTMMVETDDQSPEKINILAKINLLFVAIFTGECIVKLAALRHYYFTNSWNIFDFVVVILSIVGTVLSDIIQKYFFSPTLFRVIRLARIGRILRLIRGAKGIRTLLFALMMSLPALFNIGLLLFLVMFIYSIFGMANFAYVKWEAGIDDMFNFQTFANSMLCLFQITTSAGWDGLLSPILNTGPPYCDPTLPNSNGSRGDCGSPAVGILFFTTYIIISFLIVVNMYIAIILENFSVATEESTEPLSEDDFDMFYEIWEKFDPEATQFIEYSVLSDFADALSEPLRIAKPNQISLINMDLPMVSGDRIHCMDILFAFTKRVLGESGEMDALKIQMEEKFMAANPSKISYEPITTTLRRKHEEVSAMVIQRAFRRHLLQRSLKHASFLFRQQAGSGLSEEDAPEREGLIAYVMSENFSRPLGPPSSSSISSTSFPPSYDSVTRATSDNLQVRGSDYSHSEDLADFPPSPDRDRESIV
Description for H9c2 cardiomyocytes: The rat embryonic cardiomyocyte cell line, H9c2 (ATCC cat # CRL-1446), or acutely isolated neonatal rat heart cardiomyocytes were used. Rat neonatal ventricular cells were isolated from 3-day-old Sprague-Dawley rats (Charles River Laboratories Wilmington, Mass.) using a kit and following the manufacturer's instructions (Worthington Biochemical Corp. Lakewood, N.J.). Cells cultured in Dulbecco's modified Eagle's medium (DMEM; ATCC, Manassas, Va.) with 10% fetal calf serum (ATCC) under standard tissue culture conditions at 37° C. to 70-80% confluence were exposed to AngII (Sigma, St. Louis, Mo.) or H2O2 (Sigma) in serum free culture medium (SFM) for a total of 48 h in triplicate in 24 well plates. Experiments were repeated three times. After dissociation with 0.125% trypsin-EDTA, 20 μL of 0.4% Trypan-blue (Sigma, St. Louis, Mo.) was added to each well, and a Trypan-blue exclusion viability assay was performed.

Consider `O=C(/C=C/c1ccc(O)c(O)c1)OCCc1ccccc1` [CAPE, caffeic acid phenethyl ester], for which, in series [1] (CAPE 10 μM, H9c2 treated with H2O2), the “effect on NF-κB binding to scn5a promoter probe” value is reported as “blocked”. Moreover, in series [2] (H9c2, CAPE), the “effect on binding of p50 and p65 subunits to the channel promoter” value is on record as “could prevent biding of both subunits”.
As for catalase, the “effect on AngII-mediated downregulation of Na+ channel mRNA” value in series [3] (neonatal cardiomyocytes, pretreatment with PEG-catalase 250 U/mL, AngII 2 nM, 48 h) is given as “prevented”; in [4] (H9c2, pretreatment with PEG-catalase 250 U/mL, AngII 100 nM, 48 h) it was “prevented”.
In the case of `OO` [H2O2], the “reduction in Na+ channel mRNA” value is given as 45.4% in series [3] (isolated neonatal rat myocytes, 40 nM H2O2, 48 h) and 46.9% in series [4] (H9c2, 20 μmol/L H2O2, 48 h). Also, the “decrease in peak Na+ current” value in series [5] worked out at 46%. For the same compound, the “change in promoter activity of construct with mutated NF-κB binding site” value in [6] is on record as “no significant change in activity”. In addition, at Na+ current, the “effect on inactivation of the Na+ current” value is “slowing of inactivation”. The “depression of scn5a Na+ channel promoter activity” value with scn5a promoter is reported as 42.3%. In addition, the “NF-κB binding activity to scn5a promoter probe” value in [1] (H9c2 nuclear extracts, 48 h treatment) is reported as “increased”. In series [2] (H9c2, AngII or H2O2 treatment), the “NF-κB subunits on the cardiac Na+ channel promoter” value was “formation of the complete p50-p65 NF-κB heterodimer”.
On to `CC[C@H](C)[C@H](NC(=O)[C@H](Cc1ccc(O)cc1)NC(=O)[C@@H](NC(=O)[C@H](CCCNC(=N)N)NC(=O)[C@@H](N)CC(=O)O)C(C)C)C(=O)N[C@@H](Cc1cnc[nH]1)C(=O)N1CCC[C@H]1C(=O)N[C@@H](Cc1ccccc1)C(=O)O` [AngII, angiotensin II], for which the “AngII concentrations tolerated (cell viability)” value in the series with H9c2 cardiomyocytes is 1 to 500 nM.
